Source: ChEMBL document CHEMBL1153753, “Structure-activity relationships and mechanism of action of antitumor bis 8-hydroxyquinoline substituted benzylamines” (Eur J Med Chem, 2010)
Calls of active or inactive are those of the source. No cut-off for these calls is given here.

Assays:
[1] = Antiproliferative activity against human U87 cells expressing GFP after 3 days by flash-cytometry; type: functional, U-87MG ATCC; conditions: U-87 MG, 72 h, read-out: ED50 (the source's name)
[2] = Cytotoxicity against human KB3 cells after 72 hrs by MTS assay; type: functional; conditions: KB3, 72 h
[3] = Cytotoxicity against human U373 cells by MTT assay; type: functional, cell-based, U-373MG ATCC; conditions: U373 MG
[4] = Cytotoxicity against human Hs683 cells by MTT assay; type: functional, cell-based; conditions: Hs 683
BXPC-3 = test: Cytotoxicity against human BxPC3 cells by MTT assay; type: functional, cell-based
A549 = test: Cytotoxicity against human A549 cells by MTT assay; type: functional, cell-based
PC-3 = test: Cytotoxicity against human PC3 cells by MTT assay; type: functional, cell-based
LoVo = test: Cytotoxicity against human LoVo cells by MTT assay; type: functional, cell-based
MCF7 = test: Cytotoxicity against human MCF7 cells by MTT assay; type: functional, cell-based
T98G = test: Cytotoxicity against human T98G cells by MTT assay; type: functional, cell-based
Nucleic Acid [5] = test: Binding affinity to calf thymus DNA assessed as DNA alkylation at 2 to 100 uM after 24 hrs; type: nucleic-acid assay; conditions: Bos taurus
Nucleic Acid [6] = test: Binding affinity to calf thymus DNA at 2 to 100 uM by standard spectrometry; type: nucleic-acid assay; conditions: Bos taurus
Nucleic Acid [7] = test: Binding affinity to calf thymus DNA at 2 to 100 uM by EMSA; type: nucleic-acid assay; conditions: Bos taurus
[8] = Cytotoxicity against human KB3-1 cells assessed as reduction of glutathione level after 72 hrs by MTT assay; type: functional; conditions: KB 3-1, 72 h
Nucleic Acid [9] = test: Binding affinity to calf thymus DNA assessed as DNA cleavage at 2 to 100 uM by electrophoresis; type: nucleic-acid assay; conditions: Bos taurus
[10] = Cytotoxicity against human KB3-1 cells assessed as reduction of glutathione level after 72 hrs by MTT assay pretreated with buthionin sulfoximine; type: functional; conditions: KB 3-1

| Structure (SMILES) | EC50 [1] [nM] | CC50 [2] [nM] | IC50 [3] [nM] | IC50 [4] [nM] | IC50 (BXPC-3) [nM] | IC50 (A549) [nM] | IC50 (PC-3) [nM] | IC50 (LoVo) [nM] | IC50 (MCF7) [nM] | IC50 (T98G) [nM] | further results |
| --- | --- | --- | --- | --- | --- | --- | --- | --- | --- | --- | --- |
| CC(C)(C)OC(=O)N(Cc1ccc(C(F)(F)F)cc1)Cc1ccc(O)c2ncccc12 | 2000 | 10000 | – | – | – | – | – | – | – | – | – |
| COc1ccc(CN(Cc2ccc(C(F)(F)F)cc2)Cc2ccc(O)c3ncccc23)c2cccnc12 | – | > 10000 | – | – | – | – | – | – | – | – | – |
| Oc1ccc(CN(Cc2cc(C(F)(F)F)cc(C(F)(F)F)c2)Cc2ccc(O)c3ncccc23)c2cccnc12 | < 200 | 1000 | 96 | 181 | 79 | 9 | 71 | 10 | 38 | 72 | – |
| Oc1ccc(CN(Cc2ccc(O)c3ncccc23)Cc2ccc(O)c3ncccc23)c2cccnc12 | > 10000 | > 10000 | – | – | – | – | – | – | – | – | – |
| Oc1ccc(CN(Cc2ccc(C(F)(F)F)cc2)Cc2cccc3ncccc23)c2cccnc12 | > 10000 | 10000 | – | – | – | – | – | – | – | – | – |
| Cn1cccc1CN(Cc1ccc(O)c2ncccc12)Cc1ccc(O)c2ncccc12 | 2000 | – | – | – | – | – | – | – | – | – | – |
| Oc1ccc(CN(Cc2ccc(C(F)(F)F)cc2)Cc2ccc(O)c3ncccc23)c2cccnc12 | < 200 | 1 | 44 | 10 | 4300 | 8 | 66 | 10 | 34 | 99 | Activity (Nucleic Acid [5]): inactive; Activity (Nucleic Acid [6]): inactive; Activity (Nucleic Acid [7]): inactive; CC50 [8]: 33 nM; Activity (Nucleic Acid [9]): inactive; CC50 [10]: 70 nM |
| Oc1ccc(CN(Cc2ccccc2C(F)(F)F)Cc2ccc(O)c3ncccc23)c2cccnc12 | < 200 | 100 | 78 | 64 | 274 | 46 | 179 | 93 | 88 | 210 | – |
| Oc1ccc(CNCc2ccc(C(F)(F)F)cc2)c2cccnc12 | > 10000 | 10000 | – | – | – | – | – | – | – | – | – |
| Oc1ccc(CNCc2ccccc2)c2cccnc12 | – | > 1000 | – | – | – | – | – | – | – | – | – |
| Oc1ccc(CNCc2cccc(C(F)(F)F)c2)c2cccnc12 | 180 | 200 | – | – | – | – | – | – | – | – | – |
| Oc1ccc(CN(Cc2ccc(O)c3ncccc23)CC2CCCO2)c2cccnc12 (configuration not stated) | 5000 | 10000 | – | – | – | – | – | – | – | – | – |
| Oc1ccc(CN(Cc2ccc(OC(F)(F)F)cc2)Cc2ccc(O)c3ncccc23)c2cccnc12 | – | 100 | – | – | – | – | – | – | – | – | – |
| Oc1ccc(CN(Cc2cccc(C(F)(F)F)c2)Cc2ccc(O)c3ncccc23)c2cccnc12 | 2000 | 2200 | 65 | 36 | 167 | 38 | 37 | 94 | 30 | 57 | – |
| Oc1ccc(CN(Cc2cccc(I)c2)Cc2ccc(O)c3ncccc23)c2cccnc12 | 2000 | 1000 | 5600 | 479 | 2590 | 350 | 394 | 393 | 374 | 446 | – |
| Oc1ccc(CN(CCc2ccccn2)Cc2ccc(O)c3ncccc23)c2cccnc12 | – | > 10000 | – | – | – | – | – | – | – | – | – |
| Oc1ccc(CN(Cc2ccccc2)Cc2ccccc2)c2cccnc12 | 5000 | 1000 | – | – | – | – | – | – | – | – | – |
| O=C(O)C1CCC(CN(Cc2ccc(O)c3ncccc23)Cc2ccc(O)c3ncccc23)CC1 (configuration not stated) | – | 1100 | 3730 | 2860 | 4340 | 661 | 9940 | 422 | 9460 | 9760 | – |
| Oc1ccc(CN(Cc2cccs2)Cc2ccc(O)c3ncccc23)c2cccnc12 | < 200 | 2 | 85 | 35 | 89 | 27 | 44 | 40 | 35 | 88 | – |
| CC(C)(C)OC(=O)N(Cc1cc(C(F)(F)F)cc(C(F)(F)F)c1)Cc1ccc(O)c2ncccc12 | – | 1000 | – | – | – | – | – | – | – | – | – |
| Oc1ccc(CN(CCN2CCCC2)Cc2ccc(O)c3ncccc23)c2cccnc12 | 200 | 1000 | – | – | – | – | – | – | – | – | – |
| Oc1ccc(CN(Cc2ccccc2)Cc2ccc(O)c3ncccc23)c2cccnc12 | < 500 | 20 | 357 | 76 | 7440 | 544 | 258 | 91 | 97 | 249 | – |
| CC(C)(C)OC(=O)N(Cc1cccc(C(F)(F)F)c1)Cc1ccc(O)c2ncccc12 | > 10000 | 1000 | – | – | – | – | – | – | – | – | – |
| Cc1ccc(CNCc2ccc(O)c3ncccc23)cc1 | > 10000 | – | – | – | – | – | – | – | – | – | – |
| Cc1ccc(C(=O)NCc2ccc(O)c3ncccc23)cc1 | 10000 | 1000 | – | – | – | – | – | – | – | – | – |
